One may read the IC50 as the concentration that gives 50% inhibition. What is called melting point is the temperature of the solid-liquid transition.

SMILES strings stand for the structures.

For one data set, the target named is T1, ACAT in J774 cells (Mus musculus, UniProt Q61263).
T1 construct: J774 cells or HepG2 cells were inoculated on a 24-well plate; endogenous in cells; host or cells: J774 cells
T1 sequence (Q61263 1-540): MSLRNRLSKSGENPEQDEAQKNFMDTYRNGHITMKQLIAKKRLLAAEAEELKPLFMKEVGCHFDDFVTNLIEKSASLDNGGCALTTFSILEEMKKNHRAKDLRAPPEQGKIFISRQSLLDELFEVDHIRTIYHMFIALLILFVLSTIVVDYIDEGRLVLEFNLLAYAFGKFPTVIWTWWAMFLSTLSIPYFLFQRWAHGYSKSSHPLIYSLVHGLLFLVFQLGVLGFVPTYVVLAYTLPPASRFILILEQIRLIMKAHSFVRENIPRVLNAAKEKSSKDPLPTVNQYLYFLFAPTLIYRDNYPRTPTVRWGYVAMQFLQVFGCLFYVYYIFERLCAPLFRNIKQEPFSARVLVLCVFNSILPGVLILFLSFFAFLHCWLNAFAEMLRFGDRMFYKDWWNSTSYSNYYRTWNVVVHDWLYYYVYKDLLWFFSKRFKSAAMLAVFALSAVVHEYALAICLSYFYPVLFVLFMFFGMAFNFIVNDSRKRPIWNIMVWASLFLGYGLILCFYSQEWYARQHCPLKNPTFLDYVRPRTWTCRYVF
Kind of data set: ACAT inhibitory action (anti-foaming action) in J774 cells, cholesterol ester formation. In kind it is cell-based. The following applies: for IC50: J774 cells, 10 μg/ml 25-OH cholesterol, 18-hr culturing, cholesterol ester per protein, read-out: IC50 (μM) of J774-derived enzyme; for IC50 (HepG2)/IC50 (J774): ratio HepG2 / J774. Here is the method:
(§1) J774 cells or HepG2 cells were inoculated on a 24-well plate; J774 cells and HepG2 cells were cultured in DMEM and MEM culture broths (each of the broths containing 10% calf fetus serum), respectively, in a 5% CO2 incubator at 37° C. for 24 hours. […] After discarding the culture media, the resulting cultures were rinsed twice with PBS and extracted with 1.5 ml of hexane:isopropanol (3:2), for concentration and drying. The extracts were dissolved in isopropanol containing 0.2 ml of 10% Triton X-100, to assay total cholesterol (TC) and free cholesterol (FC) by using Cholesterol E Test WAKO (manufactured by Wako Pure Chemicals, Co.) and Free Cholesterol E Test Wako (manufactured by Wako Pure Chemicals, Co.). […] Based on the difference between TC and FC, cholesterol ester was calculated per protein, to determine IC50, compared with the calculated control IC50 value.

Another data set relates to ACAT in HepG2 cells. The data set can be described thus: ACAT inhibitory action in HepG2 cells, cholesterol ester formation. Conditions: 10 μg/ml 25-OH cholesterol, 18-hr culturing, cholesterol ester per protein, read-out: IC50 (μM) of HepG2-derived enzyme. The data set is classed as cell-based. On the procedure: as §1

Turning to `CC(C)c1cccc(C(C)C)c1NC(=O)CCCCCSc1nc2cc(OCc3ccccc3)ccc2o1` [Example 29, 6-(5-benzyloxybenzoxazol-2-ylthio)-N-(2,6-diisopropylphenyl)hexanamide], the melting point was in the range of 102 to 104 °C. Further, on ACAT in J774 cells, the IC50 amounted to 0.26 µM and the “IC50 (HepG2)/IC50 (J774)” value turned out to be 7.3. In addition, the IC50 in the data set with ACAT in HepG2 cells was 1.9 µM.

With `COC(=O)c1cccc2nc(SCCCCCC(=O)Nc3c(C(C)C)cccc3C(C)C)oc12` [Example 46, 6-(7-methoxycarbonylbenzoxazol-2-ylthio)-N-(2,6-diisopropylphenyl)hexanamide], the melting point fell in the range of 118 to 119 °C. For the same molecule, on ACAT in J774 cells, the 50% inhibitory concentration (IC50) worked out at 0.098 µM and the “IC50 (HepG2)/IC50 (J774)” value is listed as 303.4. Moreover, the IC50 in the data set with ACAT in HepG2 cells was found to be 29.8 µM.

On to `COC(=O)c1ccc2nc(SCCCCCC(=O)Nc3c(C(C)C)cccc3C(C)C)[nH]c2c1` [Example 63, 6-(5-methoxycarbonylbenzimidazol-2-ylthio)-N-(2,6-diisopropylphenyl)hexanamide], for which the melting point fell in the range of 190 to 192 °C.

The molecule `CC(C)c1cccc(C(C)C)c1NC(=O)CCCCCSc1nc2cccc(N(C)C)c2o1` [Example 50, 6-(7-N,N-dimethylaminobenzoxazol-2-ylthio)-N-(2,6-diisopropylphenyl)hexanamide] gave a melting point of 129 to 130 °C.

`CC(C)c1cccc(C(C)C)c1NC(=O)CCCCCSc1nc2c(CN(C)C)cccc2o1` [Example 27, 6-[4-(N,N-dimethylaminomethyl)benzoxazol-2-ylthio]-N-(2,6-diisopropylphenyl)hexanamide] showed a melting point of 113 to 115 °C. Moreover, on ACAT in J774 cells, the IC50 was found to be 1.31 µM.

Molecule `COC(=O)c1cccc2nc(SCCCCCC(=O)Nc3c(OC)cc(OC)cc3OC)oc12` [Example 62, 6-(7-methoxycarbonylbenzoxazol-2-ylthio)-N-(2,4,6-trimethoxyphenyl)hexanamide] yielded a melting point of 136 to 138 °C.

As to `CC(C)c1cccc(C(C)C)c1NC(=O)CCCCCSc1nc2cc(N(C)C)ccc2o1` [Example 38, 6-(5-N,N-dimethylaminobenzoxazol-2-ylthio)-N-(2,6-diisopropylphenyl)hexanamide], the melting point fell in the range of 130 to 132 °C. Further, the half-maximal inhibitory concentration (IC50) at ACAT in J774 cells is 1.83 µM.

Molecule `CC(C)c1cccc(C(C)C)c1NC(=O)CCCCCSc1nc2ccc(CN(C)C)cc2o1` [Example 43, 6-[6-(N,N-dimethylaminomethyl)benzoxazol-2-ylthio]-N-(2,6-diisopropylphenyl)hexanamide] had a melting point of 82 to 84 °C.

`CC(C)c1cccc(C(C)C)c1NC(=O)CCCCCSc1ncc[nH]1` [Example 68, 6-(imidazol-2-ylthio)-N-(2,6-diisopropylphenyl)hexanamide] had a melting point of 190 to 191 °C.

Molecule `CC(C)c1cccc(C(C)C)c1NC(=O)CCCCCSc1nc2ccc(CO)cc2o1` [Example 42, 6-(6-hydroxymethylbenzoxazol-2-ylthio)-N-(2,6-diisopropylphenyl)hexanamide] had a melting point of 93 to 95 °C.

Consider `COC(=O)c1cccc2nc([S+]([O-])CCCCCCCNC(=O)Nc3c(C(C)C)cccc3C(C)C)oc12` (stereo not shown) [Example 56, N-(2,6-diisopropylphenyl)-N′-[7-(7-methoxycarbonylbenzoxazol-2-ylsulfinyl)heptyl]urea], for which the melting point lay within 145 to 147 °C.

In turn, `CCOC(=O)c1cccc2nc(SCCCCCC(=O)Nc3c(C(C)C)cccc3C(C)C)oc12` [Example 79, 6-(7-ethoxycarbonylbenzoxazol-2-ylthio)-N-(2,6-diisopropylphenyl)hexanamide] displayed a melting point of 114 to 116 °C.

`COC(=O)c1ccc2nc(SCCCCCC(=O)Nc3c(C(C)C)cccc3C(C)C)oc2c1` [Example 40, 6-(6-methoxycarbonylbenzoxazol-2-ylthio)-N-(2,6-diisopropylphenyl)hexanamide] returned a melting point of 157 to 158 °C.

For `CC(C)c1cccc(C(C)C)c1NC(=O)CCCCCSc1nc2cccc(CN(C)C)c2o1` [Example 49, 6-[7-(N,N-dimethylaminomethyl)benzoxazol-2-ylthio]-N-(2,6-diisopropylphenyl)hexanamide], the melting point lay in the range of 102 to 104 °C.

`CC(C)c1cccc(C(C)C)c1NC(=O)CCCCCCCCSc1nc2cccc(C(F)(F)F)c2o1` [Example 75, 9-(7-trifluoromethylbenzoxazol-2-ylthio)-N-(2,6-diisopropylphenyl)nonanamide] returned a melting point of 82 to 84 °C. Besides, on ACAT in J774 cells, the IC50 was 0.012 µM and the “IC50 (HepG2)/IC50 (J774)” value worked out at 7.4. In addition, the 50% inhibitory concentration (IC50) in the data set with ACAT in HepG2 cells is 0.089 µM.

Consider `CC(C)c1cccc(C(C)C)c1NC(=O)CCCCCSc1nc2cccc(CN3CCOCC3)c2o1` [Example 51, 6-[7-(1-morpholino)methylbenzoxazol-2-ylthio]-N-(2,6-diisopropylphenyl)hexanamide], for which the melting point was in the range of 117 to 118 °C.

In turn, `CC(C)c1cccc(C(C)C)c1NC(=O)CCCCCSc1nc2cccc(-c3cc[nH]n3)c2o1` [Example 88, 6-[7-(pyrazol-3-yl)benzoxazol-2-ylthio]-N-(2,6-diisopropylphenyl)hexanamide] yielded a melting point of 174 to 176 °C. Also, at ACAT in J774 cells, the half-inhibitory concentration (IC50) came out at 1.64 µM and the “IC50 (HepG2)/IC50 (J774)” value is recorded as 6.1. In addition, the IC50 in the data set with ACAT in HepG2 cells came to 10 µM.

With `CC(C)c1cccc(C(C)C)c1NC(=O)CCCCCSc1nc2cccc(CO)c2o1` [Example 48, 6-[7-hydroxymethylbenzoxazol-2-ylthio]-N-(2,6-diisopropylphenyl)hexanamide], the melting point fell in the range of 91 to 92 °C.

With `CC(C)c1cccc(C(C)C)c1NC(=O)CCCCCSc1nc2cccc(C(F)(F)F)c2o1` [Example 74, 6-(7-trifluoromethylbenzoxazol-2-ylthio)-N-(2,6-diisopropylphenyl)hexanamide], the melting point was 130 °C.

Take `COC(=O)c1ccc2oc(SCCCCCC(=O)Nc3c(C(C)C)cccc3C(C)C)nc2c1` [Example 34, 6-(5-methoxycarbonylbenzoxazol-2-ylthio)-N-(2,6-diisopropylphenyl)hexanamide]: the melting point fell in the range of 104 to 106 °C. Also, at ACAT in J774 cells, the half-maximal inhibitory concentration (IC50) was determined as 0.6 µM and the “IC50 (HepG2)/IC50 (J774)” value is 13.5. In the data set on ACAT in HepG2 cells, the concentration for half-maximal inhibition (IC50) came to 8.15 µM.

`COC(=O)c1c(O)ccc2nc(SCCCCCC(=O)Nc3c(C(C)C)cccc3C(C)C)oc12` [Example 91, 6-[6-hydroxy-7-methoxycarbonylbenzoxazol-2-ylthio)-N-(2,6-diisopropylphenyl)hexanamide] came in with a melting point of 155 to 156 °C.

For the molecule `CC(C)c1cccc(C(C)C)c1NC(=O)C(C)(C)CCCOc1ccc2c(c1)C=C(c1nccn1C)C(CCc1ccc(F)cc1)O2` (stereo not shown) [Control 1, 5-[2-(2-(4-fluorophenyl)ethyl)-3-(1-methyl-1H-imidazol-2-yl)-2H-1-benzopyran-6-yl]oxy-2,2-dimethyl-N-(2,6-diisopropylphenyl)pentanamide, reference compound], at ACAT in J774 cells, the IC50 is 0.56 µM and the “IC50 (HepG2)/IC50 (J774)” value is on record as 9.5.

For the molecule `CC(C)c1cccc(C(C)C)c1NC(=O)CCCCCSc1nc2cccc(C(=O)O)c2o1` [Example 47, 6-(7-carboxybenzoxazol-2-ylthio)-N-(2,6-diisopropylphenyl)hexanamide], the melting point fell in the range of 175 to 177 °C.

As to `COC(=O)c1ccc2nc(SCCCCCCCCC(=O)Nc3c(C(C)C)cccc3C(C)C)oc2c1` [Example 54, 9-(6-methoxycarbonylbenzoxazol-2-ylthio)-N-(2,6-diisopropylphenyl)nonanamide], the melting point was 122 to 124 °C.

Molecule `CC(C)c1cccc(C(C)C)c1NC(=O)CCCCCNc1nc2cccnc2o1` [Example 20, 6-(oxazolo[5,4-b]pyridin-2-ylamino)-N-(2,6-diisopropylphenyl)hexanamide] returned a melting point of 177 to 178 °C.

The molecule `COC(=O)c1cccc2nc(SCCCCCCCNC(=O)Nc3c(C(C)C)cccc3C(C)C)oc12` [Example 55, N-(2,6-diisopropylphenyl)-N′-[7-(7-methoxycarbonylbenzoxazol-2-ylthio)heptyl]urea] returned a melting point of 179 to 181 °C.

For the molecule `CC(C)c1cccc(C(C)C)c1NC(=O)CCCCCSc1nc2cccc(-c3nnn[nH]3)c2o1` [Example 52, 6-[7-(tetrazol-5-yl)benzoxazol-2-ylthio)-N-(2,6-diisopropylphenyl)hexanamide], the melting point was 218 to 220 °C.

Molecule `CC(C)c1cccc(C(C)C)c1NC(=O)CCCCCSc1nc2cccnc2s1` [Example 21, 6-(thiazolo[5,4-b]pyridin-2-ylthio)-N-(2,6-diisopropylphenyl)hexanamide] registered a melting point of 137 to 138 °C.
